The experiment has as its system BDF1 mice, Adenocarcinoma 755 s.c., tumor weight T/C. Briefly: NCI In Vivo Anticancer Drug Screen. Data for tumor model Adenocarcinoma 755 (subcutaneous) in B6D2F1 (BDF1) mice. Conditions: endpoint: mean tumor weight, schedule: Q01DX011 (ip), higher = larger tumour. The procedure, abridged:
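Compound activity was tested in mice carrying transplanted tumors. Survival or tumor size was measured, and each value is the treated-group measurement divided by that of the vehicle-treated control group (T/C).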

Data on four molecules can be found in PubChem BioAssay AID180 (DTP/NCI, 2004).

Where “and” joins values, the source holds several entries; their conditions need not be identical. Identical values can stand only once.

Consider `Nc1nc(=S)c2[nH]cnc2[nH]1`, for which the T/C was 113 % of control (dose: 0.01 mg/kg/injection, vehicle: saline); 81 % of control (dose: 0.03 mg/kg/injection, vehicle: saline); 88 % of control (dose: 0.06 mg/kg/injection, vehicle: saline); 74 % of control (dose: 0.07 mg/kg/injection, vehicle: alkali diluted with saline); 28 % of control (dose: 0.07 mg/kg/injection, vehicle: methylcellulose (MC)); 112 % of control (dose: 0.12 mg/kg/injection, vehicle: carboxymethylcellulose (CMC)). Also, the T/C by setting is: (dose: 0.12 mg/kg/injection, vehicle: saline) 66 % of control; (dose: 0.13 mg/kg/injection, vehicle: alkali diluted with saline) 95 % of control; (dose: 0.13 mg/kg/injection, vehicle: other) 91 % of control; (dose: 0.13 mg/kg/injection, vehicle: saline) 7 % of control; (dose: 0.18 mg/kg/injection, vehicle: carboxymethylcellulose (CMC)) 32 % of control; (dose: 0.2 mg/kg/injection, vehicle: methylcellulose (MC)) 39 % of control. The T/C reads like this: (dose: 0.24 mg/kg/injection, vehicle: carboxymethylcellulose (CMC)) 77 % of control; (dose: 0.25 mg/kg/injection, vehicle: alkali diluted with saline) 53 % of control; (dose: 0.25 mg/kg/injection, vehicle: distilled water + alcohol) 7 % of control; (dose: 0.25 mg/kg/injection, vehicle: methylcellulose (MC)) 4 % of control and 11 % of control and 15 % of control; (dose: 0.25 mg/kg/injection, vehicle: other) 32 % of control; (dose: 0.35 mg/kg/injection, vehicle: carboxymethylcellulose (CMC)) 9 % of control. The T/C reads like this: (dose: 0.4 mg/kg/injection, vehicle: methylcellulose (MC)) 12 % of control; (dose: 0.47 mg/kg/injection, vehicle: carboxymethylcellulose (CMC)) 34 % of control; (dose: 0.5 mg/kg/injection, vehicle: alkali diluted with saline) 4 % of control; (dose: 0.5 mg/kg/injection, vehicle: distilled water + alcohol) 7 % of control; (dose: 0.5 mg/kg/injection, vehicle: other) 8 % of control; (dose: 0.5 mg/kg/injection, vehicle: saline) 8 % of control. Moreover, the T/C (dose: 0.7 mg/kg/injection, vehicle: carboxymethylcellulose (CMC)) is 7 % of control; the T/C (dose: 0.94 mg/kg/injection, vehicle: carboxymethylcellulose (CMC)) is 30 % of control; the T/C (dose: 1.0 mg/kg/injection, vehicle: alkali diluted with saline) was 1 % of control; the T/C (dose: 1.0 mg/kg/injection, vehicle: carboxymethylcellulose (CMC)) was 1 % of control and 2 % of control; the T/C (dose: 1.0 mg/kg/injection, vehicle: distilled water + alcohol) is 2 % of control; the T/C (dose: 1.0 mg/kg/injection, vehicle: other) is 3 % of control. The T/C runs as follows: (dose: 1.0 mg/kg/injection, vehicle: saline) 2 % of control and 8 % of control; (dose: 1.4 mg/kg/injection, vehicle: carboxymethylcellulose (CMC)) 5 % of control; (dose: 1.5 mg/kg/injection, vehicle: methylcellulose (MC)) 4 % of control; (dose: 2.0 mg/kg/injection, vehicle: alkali diluted with saline) 1 % of control; (dose: 2.0 mg/kg/injection, vehicle: carboxymethylcellulose (CMC)) 1 % of control; (dose: 2.0 mg/kg/injection, vehicle: other) 2 % of control. Besides, the T/C (dose: 2.0 mg/kg/injection, vehicle: saline) is 3 % of control and 7 % of control; the T/C (dose: 3.0 mg/kg/injection, vehicle: methylcellulose (MC)) is 3 % of control; the T/C (dose: 4.0 mg/kg/injection, vehicle: carboxymethylcellulose (CMC)) is 1 % of control; the T/C (dose: 4.0 mg/kg/injection, vehicle: methylcellulose (MC)) was 3 % of control; the T/C (dose: 4.0 mg/kg/injection, vehicle: other) is 1 % of control; the T/C (dose: 46.0 micrograms/kg/injection, vehicle: carboxymethylcellulose (CMC)) is 72 % of control. For the same molecule, the T/C runs as follows: (dose: 49.0 micrograms/kg/injection, vehicle: carboxymethylcellulose (CMC)) 118 % of control; (dose: 58.0 micrograms/kg/injection, vehicle: carboxymethylcellulose (CMC)) 91 % of control; (dose: 62.0 micrograms/kg/injection, vehicle: carboxymethylcellulose (CMC)) 77 % of control; (dose: 77.0 micrograms/kg/injection, vehicle: carboxymethylcellulose (CMC)) 54 % of control; (dose: 82.0 micrograms/kg/injection, vehicle: carboxymethylcellulose (CMC)) 69 % of control; (dose: 90.0 micrograms/kg/injection, vehicle: methylcellulose (MC)) 32 % of control. The T/C is, setting by setting: (dose: 93.0 micrograms/kg/injection, vehicle: carboxymethylcellulose (CMC)) 28 % of control; (dose: 116.0 micrograms/kg/injection, vehicle: carboxymethylcellulose (CMC)) 12 % of control and 36 % of control; (dose: 140.0 micrograms/kg/injection, vehicle: carboxymethylcellulose (CMC)) 11 % of control; (dose: 155.0 micrograms/kg/injection, vehicle: carboxymethylcellulose (CMC)) 6 % of control; (dose: 175.0 micrograms/kg/injection, vehicle: carboxymethylcellulose (CMC)) 4 % of control; (dose: 187.0 micrograms/kg/injection, vehicle: methylcellulose (MC)) 11 % of control. The T/C is 13 % of control (dose: 232.0 micrograms/kg/injection, vehicle: carboxymethylcellulose (CMC)); 2 % of control and 5 % of control (dose: 233.0 micrograms/kg/injection, vehicle: carboxymethylcellulose (CMC)); 3 % of control and 4 % of control (dose: 350.0 micrograms/kg/injection, vehicle: carboxymethylcellulose (CMC)); 9 % of control (dose: 375.0 micrograms/kg/injection, vehicle: methylcellulose (MC)); 5 % of control (dose: 490.0 micrograms/kg/injection, vehicle: carboxymethylcellulose (CMC)); 4 % of control (dose: 750.0 micrograms/kg/injection, vehicle: methylcellulose (MC)). Moreover, the T/C is 4 % of control (dose: 980.0 micrograms/kg/injection, vehicle: carboxymethylcellulose (CMC)); 3 % of control (dose: 1500.0 micrograms/kg/injection, vehicle: methylcellulose (MC)); 4 % of control (dose: 3000.0 micrograms/kg/injection, vehicle: methylcellulose (MC)).

On to `Nc1nc(-c2cccnc2)nc(N)c1N=O`, for which the T/C was 120 % of control (dose: 31.0 mg/kg/injection, vehicle: methylcellulose (MC)); 166 % of control (dose: 62.0 mg/kg/injection, vehicle: methylcellulose (MC)); 119 % of control (dose: 125.0 mg/kg/injection, vehicle: methylcellulose (MC)); 81 % of control (dose: 250.0 mg/kg/injection, vehicle: methylcellulose (MC)).

`CCCn1cnc2c(SCc3ccccc3F)nc(N)nc21`: the T/C by setting is: (dose: 3.1 mg/kg/injection, vehicle: methylcellulose (MC)) 22 % of control; (dose: 6.25 mg/kg/injection, vehicle: methylcellulose (MC)) 11 % of control; (dose: 12.5 mg/kg/injection, vehicle: methylcellulose (MC)) 1 % of control and 5 % of control.

As for `Cn1cnc2nc[nH]c2c1=S`, the T/C is 64 % of control (dose: 25.0 mg/kg/injection, vehicle: methylcellulose (MC)) and 75 % of control (dose: 75.0 mg/kg/injection, vehicle: methylcellulose (MC)).

The T/C is the result in the treated group divided by that in the control group, in per cent.
